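Results reflect a 48-hour exposure of cells in 96-well plates to compound at five concentrations. The concentration for full growth arrest is given as TGI.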
How the values were obtained:
Test in all cases: NCI tumour cell line growth inhibition, 48 h
M19-MEL melanoma = tested on: M19-MEL melanoma
DMS 114 small cell lung = tested on: DMS 114 small cell lung
HOP-62 NSCLC = tested on: HOP-62 NSCLC
UACC-62 melanoma = tested on: UACC-62 melanoma
LXFL 529 NSCLC = tested on: LXFL 529 NSCLC
UO-31 renal = tested on: UO-31 renal
COLO 205 colon = tested on: COLO 205 colon
CCRF-CEM leukemia = tested on: CCRF-CEM leukemia
IGROV1 ovarian = tested on: IGROV1 ovarian
OVCAR-8 ovarian = tested on: OVCAR-8 ovarian
SF-295 CNS = tested on: SF-295 CNS
OVCAR-5 ovarian = tested on: OVCAR-5 ovarian
DMS 273 small cell lung = tested on: DMS 273 small cell lung
SK-MEL-5 melanoma = tested on: SK-MEL-5 melanoma
DLD-1 colon = tested on: DLD-1 colon
TK-10 renal = tested on: TK-10 renal
OVCAR-4 ovarian = tested on: OVCAR-4 ovarian
UACC-257 melanoma = tested on: UACC-257 melanoma
KM20L2 colon = tested on: KM20L2 colon
SN12C renal = tested on: SN12C renal
A549 NSCLC = tested on: A549 NSCLC
HCC-2998 colon = tested on: HCC-2998 colon
SK-OV-3 ovarian = tested on: SK-OV-3 ovarian
K-562 leukemia = tested on: K-562 leukemia
LOX IMVI melanoma = tested on: LOX IMVI melanoma
MALME-3M melanoma = tested on: MALME-3M melanoma
NCI-H23 lung = tested on: NCI-H23 lung
OVCAR-3 ovarian = tested on: OVCAR-3 ovarian
KM12 colon = tested on: KM12 colon
HCT-116 colon = tested on: HCT-116 colon
HL-60(TB) leukemia = tested on: HL-60(TB) leukemia
786-0 renal = tested on: 786-0 renal
RPMI-8226 leukemia = tested on: RPMI-8226 leukemia
SF-268 CNS = tested on: SF-268 CNS
ACHN renal = tested on: ACHN renal
U251 CNS = tested on: U251 CNS
HOP-92 NSCLC = tested on: HOP-92 NSCLC
SNB-75 CNS = tested on: SNB-75 CNS
CAKI-1 renal = tested on: CAKI-1 renal
SF-539 CNS = tested on: SF-539 CNS
SNB-19 CNS = tested on: SNB-19 CNS
HOP-18 NSCLC = tested on: HOP-18 NSCLC
NCI-H522 lung = tested on: NCI-H522 lung
SR leukemia = tested on: SR leukemia
M14 melanoma = tested on: M14 melanoma
SK-MEL-28 melanoma = tested on: SK-MEL-28 melanoma
MOLT-4 leukemia = tested on: MOLT-4 leukemia
SK-MEL-2 melanoma = tested on: SK-MEL-2 melanoma
NCI-H226 lung = tested on: NCI-H226 lung
EKVX NSCLC = tested on: EKVX NSCLC
RXF 393 renal = tested on: RXF 393 renal
HT29 colon = tested on: HT29 colon
A498 renal = tested on: A498 renal
NCI-H460 lung = tested on: NCI-H460 lung

Structure (SMILES): COC(=O)N1[C@H]2Cc3c(OC)c(C)c(OC)c(OC)c3[C@@H]1/C(=C\c1cc(OC)c(OC)c(C)c1OC)N(Cc1ccccc1)C2=O
- TGI (M19-MEL melanoma): 60 µM
- TGI (DMS 114 small cell lung): 35.3 µM
- TGI (HOP-62 NSCLC): > 100 µM
- TGI (UACC-62 melanoma): > 100 µM
- TGI (LXFL 529 NSCLC): > 100 µM
- TGI (UO-31 renal): > 100 µM
- TGI (COLO 205 colon): 32 µM
- TGI (CCRF-CEM leukemia): > 100 µM
- TGI (IGROV1 ovarian): > 100 µM
- TGI (OVCAR-8 ovarian): > 100 µM
- TGI (SF-295 CNS): > 100 µM
- TGI (OVCAR-5 ovarian): > 100 µM
- TGI (DMS 273 small cell lung): > 100 µM
- TGI (SK-MEL-5 melanoma): 53.8 µM
- TGI (DLD-1 colon): > 100 µM
- TGI (TK-10 renal): > 100 µM
- TGI (OVCAR-4 ovarian): > 100 µM
- TGI (UACC-257 melanoma): > 100 µM
- TGI (KM20L2 colon): > 100 µM
- TGI (SN12C renal): > 100 µM
- TGI (A549 NSCLC): > 100 µM
- TGI (HCC-2998 colon): > 100 µM
- TGI (SK-OV-3 ovarian): > 100 µM
- TGI (K-562 leukemia): > 100 µM
- TGI (LOX IMVI melanoma): > 100 µM
- TGI (MALME-3M melanoma): 88.7 µM
- TGI (NCI-H23 lung): > 100 µM
- TGI (OVCAR-3 ovarian): > 100 µM
- TGI (KM12 colon): > 100 µM
- TGI (HCT-116 colon): > 100 µM
- TGI (HL-60(TB) leukemia): 30.2 µM
- TGI (786-0 renal): > 100 µM
- TGI (RPMI-8226 leukemia): > 100 µM
- TGI (SF-268 CNS): > 100 µM
- TGI (ACHN renal): > 100 µM
- TGI (U251 CNS): > 100 µM
- TGI (HOP-92 NSCLC): > 100 µM
- TGI (SNB-75 CNS): > 100 µM
- TGI (CAKI-1 renal): > 100 µM
- TGI (SF-539 CNS): > 100 µM
- TGI (SNB-19 CNS): > 100 µM
- TGI (HOP-18 NSCLC): > 100 µM
- TGI (NCI-H522 lung): 37.2 µM
- TGI (SR leukemia): 94.1 µM
- TGI (M14 melanoma): > 100 µM
- TGI (SK-MEL-28 melanoma): > 100 µM
- TGI (MOLT-4 leukemia): 75.2 µM
- TGI (SK-MEL-2 melanoma): > 100 µM
- TGI (NCI-H226 lung): 11.7 µM
- TGI (EKVX NSCLC): > 100 µM
- TGI (RXF 393 renal): > 100 µM
- TGI (HT29 colon): > 100 µM
- TGI (A498 renal): > 100 µM
- TGI (NCI-H460 lung): > 100 µM

Reference: PubChem BioAssay (NCI)
